Columns and labels:
Tom70 [1] = test: Dot-blot assay of Tom70 with HRP-conjugated Hsp90 and Tom20 peptides in presence of unconjugated peptides; type: binding, human; settings: 20 μM unconjugated peptide
Method: (§1) In subsequent experiments, non‐fluorescent peptides were used. […] Cell impermeable Hsp90 peptide served as a treatment control.
Figure 6 In vitro and in situ analysis of interactions of 10‐amino‐acid peptides corresponding to C termini of Hsp90 and Tom20 with Tom70. (A) Dot‐blot assay of interactions between Tom70 and HRP‐conjugated 10‐amino‐acid peptides corresponding to C termini of Hsp90 and Tom20 in the presence of 20 μM of unconjugated peptides. (B) Fluorescence imaging of HEK293 cells in the presence of 20 μM of fluorescein‐labeled Hsp90, R9–Hsp90, Tom20 and R9–Tom20 peptides. (C) Inhibition of Tom20–Tom70 and Hsp90–Tom70 interactions with R9–Hsp90 and R9–Tom20 in HEK293 cells measured by PLA. n = 3. Graphs were created and SD values were calculated using PRISM, version 7.02. *P‐value < 0.05 compared to control; comparisons are based on one‐way ANOVA. (D) Inhibition of Tom20–Tom70 and Hsp90–Tom70 interactions with R9–Hsp90 and R9–Tom20 in HEK293 cells measured by mammalian two‐hybrid assay. n = 3. Graphs were created and SD values were calculated using PRISM, version 7.02. *P‐value < 0.05 compared to control; comparisons are based on one‐way ANOVA.

Tom70 [2] = settings: cited from earlier work
From the text: First, we tested the ability of unlabeled Hsp90 and Tom20 peptides to compete with their HRP‐labeled analogues for binding to Tom70, the known partner for both Hsp90 and Tom20 proteins.

FKBP51 = biological target: T1, FKBP51 (Homo sapiens, UniProt Q13451); test: Dot-blot competition assay: HRP-conjugated peptide vs unlabeled peptide on immobilized FKBP51
T1 sequence (Q13451 1-457): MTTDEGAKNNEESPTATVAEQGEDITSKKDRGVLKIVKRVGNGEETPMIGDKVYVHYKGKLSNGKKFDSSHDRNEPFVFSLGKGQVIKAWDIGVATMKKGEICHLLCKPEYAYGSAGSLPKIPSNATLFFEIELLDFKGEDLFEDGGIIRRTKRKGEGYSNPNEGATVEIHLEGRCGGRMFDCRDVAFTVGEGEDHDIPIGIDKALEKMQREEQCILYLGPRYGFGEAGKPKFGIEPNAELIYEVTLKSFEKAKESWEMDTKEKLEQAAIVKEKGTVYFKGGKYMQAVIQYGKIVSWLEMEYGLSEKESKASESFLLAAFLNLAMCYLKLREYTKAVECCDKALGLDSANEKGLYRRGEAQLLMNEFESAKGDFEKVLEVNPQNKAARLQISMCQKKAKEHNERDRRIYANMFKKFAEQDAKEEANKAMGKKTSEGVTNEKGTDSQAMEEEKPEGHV
Method: (§4) Full‐length cDNA clones for respective proteins were obtained from IMAGE consortium (SourceBioScience, Nottingham, UK) and PCR amplified with forward and reverse primers (Table 1) containing overhangs with appropriate restriction sites and cloned into pGEX6 vectors (GE Healthcare, Uppsala, Sweden). Inserts were sequence verified, and the plasmids were transformed into BL21 Escherichia coli strain. Glutathione‐S‐transferase (GST) fusion proteins were purified from 1 L overnight culture after 2 h of induction with 1 mM IPTG. Cells were pelleted, resuspended in 1× PBS and sonicated 3 × 20 s on ice. EDTA and protease inhibitor cocktail were added to prevent proteolysis. The suspension was centrifuged for 30 min at 50 000 g to remove cell debris, and supernatant was loaded onto a 1 mL GSTrap™ 4B column (GE Healthcare). After column washing with 30 mL PBS, GST fusion proteins were eluted with 2.5 mL 10 mM glutathione in PBS. Eluate was passed through a PD‐10 column (GE Healthcare) to remove free glutathione. To prepare GST‐tag‐free proteins, we performed overnight cleavage at 4 °C with PreScission protease (GE Healthcare) followed by passage through a GSTrap column to remove free GST protein. Average yield from 1 L starting culture was 1–5 mg of purified proteins. Protein‐containing fractions were collected, checked with SDS/PAGE and kept at −20 °C.
(§5) Peptides were dissolved in HEPES‐KOH buffer pH 7.2 at concentration of 1 mg·mL^−1 and incubated with equimolar amounts of activated horseradish peroxidase (HRP) (Lightning‐link® HRP labeling kit cat. 701‐004, from Innova Biosciences) for 5 min. Reaction was quenched with 0.1 M Tris/HCl, pH 7.5 for 10 min and the products were passed through PD‐10 columns (GE Healthcare). Dot‐blot experiments were performed using GST‐tag‐free proteins applied to the nitrocellulose membrane. After blocking of membrane with 3% BSA in TBS‐T buffer for 1 h and subsequent wash with TBS‐T, HRP‐conjugated peptides (1 × 500 times dilution) were applied and incubated for 1 h. After subsequent washing (3 × 10 min, TBS‐T), membrane was dried and signals were quantified using a digital Fujifilm LAS3000 imager and LAS3000 software. In competition experiments, increasing concentrations of unlabeled peptides were co‐incubated with peptide–HRP conjugates.
(§6) Each peptide was separately coupled to HRP.

AIP = biological target: T2, AIP (Homo sapiens, UniProt O00170); test: Dot-blot competition assay: HRP-conjugated peptide vs unlabeled peptide on nitrocellulose-immobilized AIP
T2 sequence (O00170 1-330): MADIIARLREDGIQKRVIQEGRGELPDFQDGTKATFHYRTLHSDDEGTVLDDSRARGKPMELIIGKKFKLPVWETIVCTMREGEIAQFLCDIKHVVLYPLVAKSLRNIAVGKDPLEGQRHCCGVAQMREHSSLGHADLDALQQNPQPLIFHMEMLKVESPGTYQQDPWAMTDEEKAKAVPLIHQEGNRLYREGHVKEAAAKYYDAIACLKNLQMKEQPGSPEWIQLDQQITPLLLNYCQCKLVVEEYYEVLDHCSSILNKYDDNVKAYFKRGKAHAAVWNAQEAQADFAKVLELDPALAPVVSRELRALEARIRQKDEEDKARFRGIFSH
Method: as §4, §5, §6

HEK293 cells = settings: N-terminally fluorescein-labeled peptides, 20 μM, fluorescence imaging
From the text: (§2) P < 0.05 was considered to be statistically significant. Data are presented as mean ± SEM.

Tom20–Tom70 interaction [3] = test: Proximity ligation assay (PLA) of Tom20–Tom70 interaction in HEK293 cells; type: cell-based, human; settings: non-fluorescent peptide, n = 3
From the text: as §2, §1

Hsp90–Tom70 interaction [4] = test: Proximity ligation assay (PLA) of Hsp90–Tom70 interaction in HEK293 cells; type: cell-based, human; settings: non-fluorescent peptide, n = 3
From the text: as §2, §1

Tom20–Tom70 interaction [5] = test: Mammalian two-hybrid assay (luciferase) of Tom20–Tom70 interaction in HEK293 cells; type: cell-based, human; settings: peptide 20 μM added 4 h after transfection, 48 h, n = 3
From the text: (§3) Tom70 sequence was PCR amplified and subcloned into pACT vector of CheckMate™ mammalian two‐hybrid system (Promega, Madison, WI, USA) using SalI/NotI restriction sites, and Hsp90 and Tom20 DNA sequences were PCR amplified and subcloned into pBIND vector using SalI/NotI restriction sites. Tom70‐pACT/Hsp90‐pBIND and Tom70‐pACT/Tom20‐pBIND were co‐transfected with pLuc plasmid in a 1 : 1 : 1 molar ratio into HEK293 cells using Lipofectamine 3000 transfection reagent (Invitrogen, Carlsbad, CA, USA) according to the manufacturer's protocol. Triplicate samples in 96‐well cell culture plates Corning (Tewskbury, MA, USA) were used in each experiment. Hsp90, R9–Hsp90, Tom20 and R9–Tom20 peptides at concentration 20 μM were added 4 h after transfection. HEK293 cells were cultivated for 48 h, washed twice with PBS and lysed with PBS containing 1% Triton X‐100. Luciferase expression was detected using a luciferase assay kit from BioThema (Huddinge, Sweden) on a 96‐well plate reader from Perkin Elmer (Upplands Väsby, Stockholm, Sweden).
as §1

Hsp90–Tom70 interaction [6] = test: Mammalian two-hybrid assay (luciferase) of Hsp90–Tom70 interaction in HEK293 cells; type: cell-based, human; settings: peptide 20 μM added 4 h after transfection, 48 h, n = 3
From the text: as §3, §1

Compound	competition with HRP-conjugated Hsp90 peptide for Tom70 binding (Tom70 [1])	competition with HRP-conjugated Tom20 peptide for Tom70 binding (Tom70 [1])	affinity for Tom70 relative to 10-mer Tom20 peptide (Tom70 [2])	IC50 (FKBP51) [µM]	IC50 (AIP) [µM]	fluorescein staining of HEK293 cells (peptide translocation into the cells) (HEK293 cells)	decrease of Tom20–Tom70 interaction signal (PLA) (Tom20–Tom70 interaction [3])	decrease of Hsp90–Tom70 interaction signal (PLA) (Hsp90–Tom70 interaction [4])	inhibition of Tom20–Tom70 interaction (mammalian two-hybrid, luciferase) (Tom20–Tom70 interaction [5])	inhibition of Hsp90–Tom70 interaction (mammalian two-hybrid, luciferase) (Hsp90–Tom70 interaction [6])
CSCC[C@H](NC(=O)[C@H](CCCNC(=N)N)NC(=O)[C@H](CO)NC(=O)[C@H](C)NC(=O)[C@H](CC(=O)O)NC(=O)[C@@H](N)CCC(=O)O)C(=O)N[C@@H](CCC(=O)O)C(=O)N[C@@H](CCC(=O)O)C(=O)N[C@H](C(=O)N[C@@H](CC(=O)O)C(=O)O)C(C)C [Hsp90β]	effectively competes	effectively competes	more than 10 fold	18.9 ± 3	17.8 ± 1.35					
H-RRRRRRRRREDASRMEEVD-OH [R9–Hsp90, cell‐permeant analog of the Hsp90 peptide containing a nine‐arginine N‐terminal tag]						resulted in HEK293 cells staining	approximately 50%	approximately 50%	sensitive	inhibited

From publication PMC6212638, “In silico identification and biochemical characterization of the human dicarboxylate clamp TPR protein interaction network” (FEBS Open Bio, 2018)
